From patent US10351591B2, “Polypeptides, peptides, and proteins functionalized by alkylation of thioether groups via ring-opening reactions” (The Regents of the University of California, priority 2015, dated 2019)

Key:
[1] = Poly(S-alkyl-L-methionine) stability studies in aqueous buffers; format: physicochemical; conditions: aqueous buffers ranging in pH from 5 to 9; 37° C., 24 h; S-alkyl-Met/Met ratio by 1H NMR
Procedure: The mixture was incubated on a 37° C. H2O bath for 24 h. […] The retentate was lyophilized.

[2] = potent nucleophile 2-mercaptopyridine; 37° C., 24 h

Poly(S-(3-azido-2-hydroxypropyl)-L-methionine sulfonium chloride) [compound 4]
stability in aqueous buffers [1]: good stability | stability against dealkylation by nucleophile [2]: quite stable
